Measurements taken from patent publication US20230059124A1, “Novel TAS2R38 Bitter Taste Receptor Agonist” (priority 2021, published 2023).

Key:
TAS2R38 gene [1] = assay: DNA microarray gene expression, MatTek full thickness tissue (EFT-200); format: cell-based, Homo sapiens; settings: 0.05 ml solubilized xanthohumol liquid formulation 5 mg/ml, 48 hours; ratio >=1.3 = up-regulated
Description: The testing model used in this study is the MatTek full thickness tissue (EFT-200). This skin model consists of normal human-derived epidermal keratinocytes that have been cultured to form a multilayered, highly differentiated model of the human epidermis and human fibroblasts that have been seeded into a collagen matrix to form the dermis. This model also introduces a well-defined basement membrane between the epidermal and dermal layers, which is essential to enable in vivo like interactions between the keratinocytes and the fibroblasts.
Upon arrival, the MatTek ET-200 tissue was stored at 4° C. until used (they can be stored for up to 72 hours however tissue viability may decrease with prolonged storage). Prior to use, the tissues to be used were removed from the agarose-shipping tray and placed into a 6-well plate containing 2.0 ml of assay medium (37±2° C.). All of the agarose must be removed from the outside of the tissue culture insert since any residual agarose may prevent the assay medium from reaching the tissue. […]
At the end of the incubation any residual test material was removed from the tissues by rinsing them twice with at least 100 μl of PBS. […] These broader ranges are a more conservative judging criterion and account for possible sources of variation in fluorescence intensity that are not associated with the treatment. […]

TAS2R38 gene [2] = assay: qPCR TAS2R38 gene expression in hTBEC 1 culture; format: cell-based, human; settings: for Tas2R38 3prime 2^-ddct / Tas2R38 5prime 2^-ddct / Tas2R38C DS 2^-ddct / Tas2R38 3prime ddCT / Tas2R38 5prime ddCT / Tas2R38C DS ddCT: 1 μM; for Tas2R38 3prime 2^-ddct / Tas2R38 5prime 2^-ddct / Tas2R38C DS 2^-ddct: control = 1.000
Description: (§1) Currently, very little is known about compounds that directly agonize and regulate TAS2R38 expression. Because of this, research related to the prenylflavonoid xanthohumol's effects on gene expression was compared with other TAS2R38 targeting compounds, namely sinigrin, a glucosinolate connected to the family of glucosides found in the Brassicaceae vegetable family and found in foods such as brussels sprouts and broccoli. […] selectively triggers the taster variant of the TAS2R38 receptor (Meyerhof, W. et al. The Molecular Receptive Ranges of Human TAS2R Bitter Taste Receptors. Chem Sense (2010) 35: 157-70.) […] was used as a comparator at a concentration of 1 the same concentration as xanthohumol (1 μM). Two hTBEC cultures were selected for this initial study. hTBEC 1 is derived from one of the most bitter-responsive cultures, which has a moderate/moderately low basal gene expression level of TAS2R38. hTBEC 2 is derived from a culture that responds to bitter stimuli, but has a high response in particular to TAS2R38 expression compared with other hTBEC repositories. RNA was harvested from cultures treated cultures and control cultures at 1 μM lead compound at 24 and 48 hours post treatment. Following is a table that explains the experimental paradigm in full: [table] In an effort to establishing a comprehensive understanding of xanthohumol's effects on gene expression, 3 unique primer pairs to accurately capture the TAS2R38 gene were developed as cultures. […] The published NCBI genetic sequence for the region of chromosome 7q that encodes TAS2R38 and overlay map the SNP variant markers to ensure the primers cover strategic regions of the TAS2R38 gene. For probing TAS2R38, 3 individual primer pairs were used for a comprehensive view of how the compound may be “hitting” the gene.

TAS2R38 gene [3] = assay: qPCR TAS2R38 gene expression in hTBEC 2 culture; format: cell-based, human; settings: 1 μM; for Tas2R38 3prime 2^-ddct / Tas2R38 5prime 2^-ddct / Tas2R38C DS 2^-ddct: control = 1.000
Description: as §1

[4] = hTBEC 1, 24 hour, vs control 24
[5] = hTBEC 1, 48 hour, vs control 48 hour
[6] = hTBEC 2, 24 hour, vs control 24
[7] = hTBEC 2, 48 hour, vs control 48 hour

Row | SMILES | Tas2R38 3prime 2^-ddct (TAS2R38 gene [2]; hTBEC 1, 24 hour) | Tas2R38 5prime 2^-ddct (TAS2R38 gene [2]; hTBEC 1, 24 hour) | Tas2R38C DS 2^-ddct (TAS2R38 gene [2]; hTBEC 1, 24 hour) | Tas2R38 3prime ddCT (TAS2R38 gene [2]; [4]) | Tas2R38 5prime ddCT (TAS2R38 gene [2]; [4]) | Tas2R38C DS ddCT (TAS2R38 gene [2]; [4]) | Tas2R38 3prime 2^-ddct (TAS2R38 gene [2]; hTBEC 1, 48 hour) | Tas2R38 5prime 2^-ddct (TAS2R38 gene [2]; hTBEC 1, 48 hour) | Tas2R38C DS 2^-ddct (TAS2R38 gene [2]; hTBEC 1, 48 hour) | Tas2R38 3prime ddCT (TAS2R38 gene [2]; [5]) | Tas2R38 5prime ddCT (TAS2R38 gene [2]; [5]) | Tas2R38C DS ddCT (TAS2R38 gene [2]; [5]) | Tas2R38 3prime 2^-ddct (TAS2R38 gene [3]; hTBEC 2, 24 hour) | Tas2R38 5prime 2^-ddct (TAS2R38 gene [3]; hTBEC 2, 24 hour) | Tas2R38C DS 2^-ddct (TAS2R38 gene [3]; hTBEC 2, 24 hour) | Tas2R38 3prime ddCT (TAS2R38 gene [3]; [6]) | Tas2R38 5prime ddCT (TAS2R38 gene [3]; [6]) | Tas2R38C DS ddCT (TAS2R38 gene [3]; [6]) | Tas2R38 3prime 2^-ddct (TAS2R38 gene [3]; hTBEC 2, 48 hour) | Tas2R38 5prime 2^-ddct (TAS2R38 gene [3]; hTBEC 2, 48 hour) | other results
1 | COc1cc(O)c(CC=C(C)C)c(O)c1C(=O)/C=C/c1ccc(O)cc1 [xanthohumol] | 2.024 | 3.983 | 2.785 | −1.017 | −1.994 | −1.478 | 0.664 | 1.368 | 4.109 | 0.591 | −0.452 | −2.039 | 2.013 | 2.609 | 1.779 | −1.009 | −1.383 | −0.831 | 0.995 | 0.624 | Ratio of Medians, TAS2R38 (NM_176817) up-regulation (TAS2R38 gene [1]): 21; up regulation of the TAS2R38 gene, higher than baseline or the Sinigrin control (TAS2R38 gene [2]; FIG. 1, 1 μM, within 24 hours, culture not stated): approximately 4 ×; Tas2R38C DS 2^-ddct (TAS2R38 gene [3]; hTBEC 2, 48 hour): 4.175; Tas2R38 3prime ddCT (TAS2R38 gene [3]; [7]): 0.007; Tas2R38 5prime ddCT (TAS2R38 gene [3]; [7]): 0.679; Tas2R38C DS ddCT (TAS2R38 gene [3]; [7]): −2.062
2 | C=CCC(=NOS(=O)(=O)O)S[C@@H]1O[C@H](CO)[C@@H](O)[C@H](O)[C@H]1O (stereo in doubt) [sinigrin, reference compound] | 0.988 | 1.142 | 1.023 | 0.017 | −0.192 | −0.033 | 0.983 | 1.027 | 1.716 | 0.025 | −0.038 | −0.779 | 0.600 | 0.553 | 0.657 | 0.736 | 0.616 | 0.605 | 1.436 | 1.317 | Tas2R38C DS 2^-ddct (TAS2R38 gene [3]; hTBEC 2, 48 hour): 0.625; Tas2R38 3prime ddCT (TAS2R38 gene [3]; [7]): −0.524; Tas2R38 5prime ddCT (TAS2R38 gene [3]; [7]): −0.397; Tas2R38C DS ddCT (TAS2R38 gene [3]; [7]): 0.677
